Assay [1] concerns KMS-12-PE Bcl-2 G101V. Briefly: In vitro cytotoxicity CellTiter-Glo 48 h, KMS-12-PE Bcl-2 G101V. Type of assay: cell-based. The following applies: for Ratio (G101V/WT): C50 KMS-12-PE Bcl-2 G101V over C50 KMS-12-PE Bcl-2 WT; for IC50: Homo sapiens, KMS-12-PE, 48 h, CellTiter-Glo, C50 = concentration needed to reach 50% of the cellular viability. The essentials: (§1)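 KMS-12-PE myeloma cells were lentivirally transduced with wild-type or G101V-mutant Bcl-2 and sorted by TagRFP. They were exposed to compounds as 11-point dose responses for 48 h at 37 °C, 5% CO2. Viability was read by CellTiter-Glo ATP luminescence, and C50 was the concentration giving 50% viability.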

The target in assay [2] is BCLXL WT (Homo sapiens (Human), UniProt Q07817). Briefly: TR-FRET competitive binding assay, BCLXL WT. The following applies: for Ki: BCLXL WT, Ki determined from IC50, read-out: TR_FRET EKI BclxL; for TR_FRET EKI BCLxL/WT selectivty ratio: ratio Ki BCLxL / Ki BCL2 WT. The essentials:
(§2)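 Terbium-labelled N-terminal Halo-fusion BCL2 or BCLXL (E. coli), 0.5 nM, competed against fluorescein-labelled PUMA peptide (2 or 20 nM) for 2 h at 23° C in 50 mM Hepes pH 7.5, 150 mM NaCl, 5% DMSO. TR-FRET 520/495 nm ratio gave IC50 by four-parameter fit; Ki derived from IC50.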

The target of assay [3] is BCL2 D103Y (Homo sapiens, UniProt P10415, D103Y). Put plainly: TR-FRET competitive binding assay, BCL2 D103Y. The note with it: Ki determined from IC50, read-out: TR_FRET EKI_Bcl2 D103Y. A digest of the protocol: as §2
Assay [4] deals with BCL2 WT (Homo sapiens (Human), UniProt P10415). Put plainly: TR-FRET competitive binding assay, BCL2 WT. The note with it: Ki determined from IC50, read-out: TR_FRET EKI_Bcl2 WT. A digest of the protocol:
as §2

The test system of assay [5] is KMS-12-PE Bcl-2 WT. Put plainly: In vitro cytotoxicity CellTiter-Glo 48 h, KMS-12-PE Bcl-2 WT. Type of assay: cell-based. The note with it: Homo sapiens, KMS-12-PE, C50 = concentration needed to reach 50% of the cellular viability. The essentials:
as §1

The target in assay [6] is BCL2 G101V (Homo sapiens, UniProt P10415, G101V). Briefly: TR-FRET competitive binding assay, BCL2 G101V. The note with it: BCL2 G101V; Ki determined from IC50; read-out: TR_FRET EKI_Bcl2 G101V. The essentials:
as §2

The subject of assay [7] is BCL2 G101V. Put plainly: TR-FRET competitive binding assay, BCL2 G101V. Set-up: species or system human. The note with it: ratio Ki BCL2 G101V / Ki BCL2 WT. A digest of the protocol:
as §2

Structures are written as SMILES.

BCLXL WT, sequence (Q07817 other isoform, or with tags, fused parts or gaps): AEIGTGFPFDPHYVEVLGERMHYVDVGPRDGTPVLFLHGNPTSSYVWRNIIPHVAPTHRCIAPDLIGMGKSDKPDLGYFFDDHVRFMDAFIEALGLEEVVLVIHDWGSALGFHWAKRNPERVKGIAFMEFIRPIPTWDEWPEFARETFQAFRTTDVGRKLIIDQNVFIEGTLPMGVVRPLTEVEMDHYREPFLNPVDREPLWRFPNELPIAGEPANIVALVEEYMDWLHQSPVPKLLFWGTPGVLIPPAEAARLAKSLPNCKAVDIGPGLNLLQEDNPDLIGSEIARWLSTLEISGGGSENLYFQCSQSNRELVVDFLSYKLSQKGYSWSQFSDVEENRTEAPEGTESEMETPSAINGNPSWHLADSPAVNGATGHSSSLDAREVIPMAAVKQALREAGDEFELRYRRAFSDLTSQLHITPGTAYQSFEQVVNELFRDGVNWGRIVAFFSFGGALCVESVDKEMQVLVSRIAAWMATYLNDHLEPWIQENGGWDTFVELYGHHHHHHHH

With `Cc1c(N(C(=O)c2cc(-c3cc4c(cc3C(=O)N3Cc5ccccc5C[C@H]3C)CN(C(=O)Cc3ccc(Oc5ccccc5)cc3)CC4)n(C)c2C)c2ccc(O)cc2)cc(C#N)n1C` [Example 10, N-(5-cyano-1,2-dimethyl-1H-pyrrol-3-yl)-N-(4-hydroxyphenyl)-1,2-dimethyl-5-{7-[(3R)-3-methyl-1,2,3,4-tetrahydroisoquinoline-2-carbonyl]-2-[2-(4-phenoxyphenyl)acetyl]-1,2,3,4-tetrahydroisoquinolin-6-yl}-1H-pyrrole-3-carboxamide], the “Ratio (G101V/WT)” value in assay [1] is 4.58. The IC50 came to 0.0641 µM in assay [1] and 0.014 µM in assay [5]. Moreover, the Ki in assay [2] came out at 31.2 nM; in assay [3] it was 2.98 nM; in assay [4] it was 2.2 nM; in assay [6], 5.7 nM. In assay [2], the “TR_FRET EKI BCLxL/WT selectivty ratio” value was 14.2. Moreover, the “TR_FRET EKI G101V/WT selectivty ratio” value in assay [7] was found to be 2.6.

On to `Cc1c(N(C(=O)c2cc(-c3cc4c(cc3C(=O)N3Cc5ccccc5C[C@H]3C)CN(C(=O)Cc3ccc(F)cc3F)CC4)n(C)c2C)c2ccc(O)cc2)cc(C#N)n1C` [Example 11, N-(5-cyano-1,2-dimethyl-1H-pyrrol-3-yl)-5-{2-[2-(2,4-difluorophenyl)acetyl]-7-[(3R)-3-methyl-1,2,3,4-tetrahydroisoquinoline-2-carbonyl]-1,2,3,4-tetrahydroisoquinolin-6-yl}-N-(4-hydroxyphenyl)-1,2-dimethyl-1H-pyrrole-3-carboxamide], for which, in assay [1], the “Ratio (G101V/WT)” value is reported as 7.05. The IC50 in assay [1] was 0.0249 µM; in assay [5], 0.0035 µM. Besides, the Ki in assay [2] came to 4.8 nM; in assay [3], 0.55 nM; in assay [4] it was 0.34 nM; in assay [6], 1.3 nM. The “TR_FRET EKI BCLxL/WT selectivty ratio” value in assay [2] amounted to 14.1. Besides, the “TR_FRET EKI G101V/WT selectivty ratio” value in assay [7] is given as 3.8.

As to `Cc1c(N(C(=O)c2cc(-c3cc4c(cc3C(=O)N3Cc5ccccc5C[C@H]3C)CN(C(=O)Cc3ccccc3)CC4)n(C)c2C)c2ccc(O)cc2F)cc(C#N)n1C` [Example 13, N-(5-cyano-1,2-dimethyl-1H-pyrrol-3-yl)-N-(2-fluoro-4-hydroxyphenyl)-1,2-dimethyl-5-{7-[(3R)-3-methyl-1,2,3,4-tetrahydroisoquinoline-2-carbonyl]-2-(2-phenylacetyl)-1,2,3,4-tetrahydroisoquinolin-6-yl}-1H-pyrrole-3-carboxamide], in assay [1], the “Ratio (G101V/WT)” value was determined as 5.37. In addition, the IC50 in assay [1] amounted to 0.0704 µM; in assay [5] it was 0.0131 µM. The Ki in assay [2] worked out at 4.6 nM; in assay [3] it was 2.35 nM; in assay [4], 1 nM; in assay [6] it was 2 nM. Moreover, in assay [2], the “TR_FRET EKI BCLxL/WT selectivty ratio” value was determined as 4.6. Moreover, the “TR_FRET EKI G101V/WT selectivty ratio” value in assay [7] is on record as 2.0.

For the compound `Cc1c(N(C(=O)c2cc(-c3cc4c(cc3C(=O)N3Cc5ccccc5C[C@H]3C)CN(C(=O)c3n[nH]c5ccccc35)CC4)n(C)c2C)c2ccc(O)cc2)cc(C#N)n1C` [Example 15, N-(5-cyano-1,2-dimethyl-1H-pyrrol-3-yl)-N-(4-hydroxyphenyl)-5-[2-(1H-indazole-3-carbonyl)-7-[(3R)-3-methyl-1,2,3,4-tetrahydroisoquinoline-2-carbonyl]-1,2,3,4-tetrahydroisoquinolin-6-yl]-1,2-dimethyl-1H-pyrrole-3-carboxamide], the “Ratio (G101V/WT)” value in assay [1] is given as 4.3. For the same compound, the IC50 in assay [1] stood at 0.0714 µM; in assay [5], 0.0166 µM. In addition, the Ki in assay [2] amounted to 8.4 nM; in assay [3], 3.01 nM; in assay [4], 0.67 nM; in assay [6] it was 6.1 nM. Moreover, the “TR_FRET EKI BCLxL/WT selectivty ratio” value in assay [2] is 12.5. Moreover, the “TR_FRET EKI G101V/WT selectivty ratio” value in assay [7] is on record as 9.1.

Take `Cc1c(N(C(=O)c2cc(-c3cc4c(cc3C(=O)N3Cc5ccccc5C[C@H]3C)CN(C(=O)Cc3ccc(Cl)cc3F)CC4)n(C)c2C)c2ccc(O)cc2)cc(C#N)n1C` [Example 19, 5-{2-[2-(4-chloro-2-fluorophenyl)acetyl]-7-[(3R)-3-methyl-1,2,3,4-tetrahydroisoquinoline-2-carbonyl]-1,2,3,4-tetrahydroisoquinolin-6-yl}-N-(5-cyano-1,2-dimethyl-1H-pyrrol-3-yl)-N-(4-hydroxyphenyl)-1,2-dimethyl-1H-pyrrole-3-carboxamide]: in assay [1], the “Ratio (G101V/WT)” value was found to be 6.91. Besides, the results for the IC50 in assay [1] and in assay [5] were 0.0423 µM and 0.0061 µM, respectively. Also, the Ki in assay [2] stood at 7.4 nM; in assay [3] it was 0.97 nM; in assay [4], 0.4 nM; in assay [6], 1.9 nM. In addition, the “TR_FRET EKI BCLxL/WT selectivty ratio” value in assay [2] is 18.5. The “TR_FRET EKI G101V/WT selectivty ratio” value in assay [7] is given as 4.8.

On to `Cc1c(N(C(=O)c2cc(-c3cc4c(cc3C(=O)N3Cc5ccccc5C[C@H]3C)CN(C(=O)C3Cc5ccccc5O3)CC4)n(C)c2C)c2ccc(O)cc2)cc(C#N)n1C` (stereo partly drawn) [Example 20, N-(5-cyano-1,2-dimethylpyrrol-3-yl)-5-{2-[(2,3-dihydro-1-benzofuran-2-yl)carbonyl]-7-{[(3R)-3-methyl-3,4-dihydro-1H-isoquinolin-2-yl]carbonyl}-3,4-dihydro-1H-isoquinolin-6-yl}-N-(4-hydroxyphenyl)-1,2-dimethylpyrrole-3-carboxamide], for which the “Ratio (G101V/WT)” value in assay [1] is 6.74. Also, the IC50 in assay [1] stood at 0.0681 µM; in assay [5], 0.0101 µM. Besides, the Ki in assay [2] came to 6.6 nM; in assay [3], 0.68 nM; in assay [4], 0.53 nM; in assay [6], 2.7 nM. Also, the “TR_FRET EKI BCLxL/WT selectivty ratio” value in assay [2] is 12.5. Moreover, in assay [7], the “TR_FRET EKI G101V/WT selectivty ratio” value amounted to 5.0.

Take `Cc1c(C(=O)N(c2ccc(O)cc2)c2cc(C#N)n(CCN(C)C3CC3)c2C)cc(-c2cc3c(cc2C(=O)N2Cc4ccccc4C[C@H]2C)CN(C(=O)Cc2ccccc2)CC3)n1C` [Example 22, N-[5-cyano-1-[2-[cyclopropyl(methyl)amino]ethyl]-2-methyl-pyrrol-3-yl]-N-(4-hydroxyphenyl)-1,2-dimethyl-5-[7-[(3R)-3-methyl-3,4-dihydro-1H-isoquinoline-2-carbonyl]-2-(2-phenylacetyl)-3,4-dihydro-1H-isoquinolin-6-yl]pyrrole-3-carboxamide]: in assay [1], the “Ratio (G101V/WT)” value was found to be 8.47. The IC50 was 0.0864 µM in assay [1] and 0.0102 µM in assay [5]. Besides, the Ki in assay [2] was 2.3 nM; in assay [3], 0.82 nM; in assay [4] it was 0.2 nM; in assay [6] it was 1 nM. For the same compound, the “TR_FRET EKI BCLxL/WT selectivty ratio” value in assay [2] was 11.5. The “TR_FRET EKI G101V/WT selectivty ratio” value in assay [7] is 5.0.

In the case of `Cc1c(N(C(=O)c2cc(-c3cc4c(cc3C(=O)N3Cc5ccccc5C[C@H]3C)CN(C(=O)Cc3ccc(Br)cc3F)CC4)n(C)c2C)c2ccc(O)cc2)cc(C#N)n1C` [Example 24, 5-{2-[2-(4-bromo-2-fluorophenyl)acetyl]-7-[(3R)-3-methyl-1,2,3,4-tetrahydroisoquinoline-2-carbonyl]-1,2,3,4-tetrahydroisoquinolin-6-yl}-N-(5-cyano-1,2-dimethyl-1H-pyrrol-3-yl)-N-(4-hydroxyphenyl)-1,2-dimethyl-1H-pyrrole-3-carboxamide], the “Ratio (G101V/WT)” value in assay [1] is given as 7.19. Also, the IC50 in assay [1] is 0.0423 µM; in assay [5], 0.0059 µM. For the same compound, the Ki was 6.1 nM in assay [2], 1.02 nM in assay [3], 0.53 nM in assay [4] and 1.8 nM in assay [6]. For the same compound, the “TR_FRET EKI BCLxL/WT selectivty ratio” value in assay [2] is 11.5. In addition, the “TR_FRET EKI G101V/WT selectivty ratio” value in assay [7] amounted to 3.4.

As to `Cc1c(N(C(=O)c2cc(-c3cc4c(cc3C(=O)N3Cc5ccccc5C[C@H]3C)CN(C(=O)Cc3ccc(OCCN5CCN(CC(F)(F)F)CC5)cc3)CC4)n(C)c2C)c2ccc(O)cc2)cc(C#N)n1C` [Example 32, N-(5-cyano-1,2-dimethyl-1H-pyrrol-3-yl)-N-(4-hydroxyphenyl)-1,2-dimethyl-5-{7-[(3R)-3-methyl-1,2,3,4-tetrahydroisoquinoline-2-carbonyl]-2-[2-(4-{2-[4-(2,2,2-trifluoroethyl)piperazin-1-yl]ethoxy}phenyl)acetyl]-1,2,3,4-tetrahydroisoquinolin-6-yl}-1H-pyrrole-3-carboxamide], the “Ratio (G101V/WT)” value in assay [1] came to 5.38. Also, the IC50 in assay [1] was 0.0393 µM; in assay [5] it was 0.0073 µM. The Ki in assay [2] is 6.7 nM; in assay [3] it was 1.04 nM; in assay [4] it was 0.64 nM; in assay [6] it was 1.7 nM. Besides, the “TR_FRET EKI BCLxL/WT selectivty ratio” value in assay [2] came to 10.5. Moreover, the “TR_FRET EKI G101V/WT selectivty ratio” value in assay [7] came to 2.6.

The record behind these values is US20250179047A1, “5-[7-(3,4-DIHYDRO-1H-ISOQUINOLINE-2-CARBONYL)-1,2,3,4 TETRAHYDROISOQUINOLIN-6-YL]-1H-PYRROLE-3-CARBOXAMIDE DERIVATIVES, PHARMACEUTICAL COMPOSITIONS CONTAINING THEM AND THEIR USES AS PRO-APOPTOTIC AGENTS” (LES LABORATOIRES SERVIER, priority 2022, published 2025).
